Columns and labels:
D(3) dopamine receptor = D(3) dopamine receptor (Homo sapiens, UniProt P35462)
[1] = molecular target: 5-hydroxytryptamine receptor 2B (Homo sapiens, UniProt P41595); assay type: functional, cell-based
B2 bradykinin receptor = molecular target: T1, B2 bradykinin receptor (Homo sapiens, UniProt P30411)
T1 sequence (P30411 whole entry): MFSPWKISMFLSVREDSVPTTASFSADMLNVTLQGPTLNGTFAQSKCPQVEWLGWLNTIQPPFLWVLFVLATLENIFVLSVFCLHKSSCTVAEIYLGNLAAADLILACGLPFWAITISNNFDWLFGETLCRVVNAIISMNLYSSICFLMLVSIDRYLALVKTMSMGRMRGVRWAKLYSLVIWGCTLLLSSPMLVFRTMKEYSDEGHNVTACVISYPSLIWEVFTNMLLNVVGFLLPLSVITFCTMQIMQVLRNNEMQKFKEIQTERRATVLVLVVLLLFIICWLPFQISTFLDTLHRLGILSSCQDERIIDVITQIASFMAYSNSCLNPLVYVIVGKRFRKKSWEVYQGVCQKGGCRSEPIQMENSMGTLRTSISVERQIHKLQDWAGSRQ

[2] = molecular target: 5-hydroxytryptamine receptor 2A (Homo sapiens, UniProt P28223); assay type: functional, cell-based
[3] = molecular target: T2, Alpha-2C adrenergic receptor (Homo sapiens, UniProt P18825); assay type: functional
T2 sequence (P18825 whole entry): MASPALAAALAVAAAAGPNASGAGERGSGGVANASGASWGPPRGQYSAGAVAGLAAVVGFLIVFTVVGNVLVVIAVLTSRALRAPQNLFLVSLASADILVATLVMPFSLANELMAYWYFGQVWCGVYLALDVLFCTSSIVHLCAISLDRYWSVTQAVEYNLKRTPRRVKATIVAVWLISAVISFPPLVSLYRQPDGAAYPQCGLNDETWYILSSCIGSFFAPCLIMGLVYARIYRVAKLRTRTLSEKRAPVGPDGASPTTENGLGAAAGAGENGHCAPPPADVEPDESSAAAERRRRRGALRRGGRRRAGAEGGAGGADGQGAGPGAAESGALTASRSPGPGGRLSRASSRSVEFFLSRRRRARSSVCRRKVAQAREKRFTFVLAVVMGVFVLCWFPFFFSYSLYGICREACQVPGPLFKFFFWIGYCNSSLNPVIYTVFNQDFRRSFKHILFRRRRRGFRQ

Cannabinoid receptor 1 = Cannabinoid receptor 1 (Homo sapiens, UniProt P21554)
Sequence of Cannabinoid receptor 1 (P21554 whole entry): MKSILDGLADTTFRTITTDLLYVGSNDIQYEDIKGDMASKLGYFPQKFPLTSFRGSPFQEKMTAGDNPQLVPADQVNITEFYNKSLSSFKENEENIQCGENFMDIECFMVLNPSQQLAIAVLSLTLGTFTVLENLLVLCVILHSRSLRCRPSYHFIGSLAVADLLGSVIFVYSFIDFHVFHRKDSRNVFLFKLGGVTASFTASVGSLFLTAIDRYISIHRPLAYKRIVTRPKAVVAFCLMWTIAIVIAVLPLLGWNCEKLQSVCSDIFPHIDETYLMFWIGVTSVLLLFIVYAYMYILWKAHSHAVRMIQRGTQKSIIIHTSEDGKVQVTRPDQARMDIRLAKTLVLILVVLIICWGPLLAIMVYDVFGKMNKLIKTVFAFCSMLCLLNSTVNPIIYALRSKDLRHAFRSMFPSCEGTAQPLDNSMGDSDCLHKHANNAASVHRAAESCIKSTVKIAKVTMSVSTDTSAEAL

Histamine H2 receptor = Histamine H2 receptor (Homo sapiens, UniProt P25021); assay type: functional, cell-based
[4] = molecular target: 3',5'-cyclic-AMP phosphodiesterase 4D (Homo sapiens, UniProt Q08499); assay type: functional
Sequence of 3',5'-cyclic-AMP phosphodiesterase 4D (Q08499 whole entry): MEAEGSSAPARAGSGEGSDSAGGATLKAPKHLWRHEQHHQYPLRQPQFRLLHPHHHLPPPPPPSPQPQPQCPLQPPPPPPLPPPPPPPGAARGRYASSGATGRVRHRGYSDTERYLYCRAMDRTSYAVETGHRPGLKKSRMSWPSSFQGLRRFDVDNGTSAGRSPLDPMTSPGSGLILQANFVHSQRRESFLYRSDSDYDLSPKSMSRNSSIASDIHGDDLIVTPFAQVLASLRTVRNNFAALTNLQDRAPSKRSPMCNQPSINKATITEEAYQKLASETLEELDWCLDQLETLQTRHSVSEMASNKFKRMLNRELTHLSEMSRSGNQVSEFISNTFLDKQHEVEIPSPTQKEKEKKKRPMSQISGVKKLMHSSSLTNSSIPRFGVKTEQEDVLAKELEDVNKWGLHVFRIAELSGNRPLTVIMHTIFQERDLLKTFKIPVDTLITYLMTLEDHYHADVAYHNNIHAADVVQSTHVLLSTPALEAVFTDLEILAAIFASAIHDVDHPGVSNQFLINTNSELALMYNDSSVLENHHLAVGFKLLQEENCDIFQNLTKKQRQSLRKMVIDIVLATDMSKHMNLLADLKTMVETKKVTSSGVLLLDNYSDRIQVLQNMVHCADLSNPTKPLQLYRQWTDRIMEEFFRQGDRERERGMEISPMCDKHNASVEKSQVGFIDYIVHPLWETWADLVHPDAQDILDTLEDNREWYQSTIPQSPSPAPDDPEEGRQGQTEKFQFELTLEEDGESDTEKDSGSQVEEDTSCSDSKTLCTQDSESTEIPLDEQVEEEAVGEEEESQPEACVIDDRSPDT

[5] = molecular target: T3, Prostaglandin G/H synthase 1 (Rattus norvegicus, UniProt Q63921); assay type: functional
T3 sequence (Q63921 whole entry): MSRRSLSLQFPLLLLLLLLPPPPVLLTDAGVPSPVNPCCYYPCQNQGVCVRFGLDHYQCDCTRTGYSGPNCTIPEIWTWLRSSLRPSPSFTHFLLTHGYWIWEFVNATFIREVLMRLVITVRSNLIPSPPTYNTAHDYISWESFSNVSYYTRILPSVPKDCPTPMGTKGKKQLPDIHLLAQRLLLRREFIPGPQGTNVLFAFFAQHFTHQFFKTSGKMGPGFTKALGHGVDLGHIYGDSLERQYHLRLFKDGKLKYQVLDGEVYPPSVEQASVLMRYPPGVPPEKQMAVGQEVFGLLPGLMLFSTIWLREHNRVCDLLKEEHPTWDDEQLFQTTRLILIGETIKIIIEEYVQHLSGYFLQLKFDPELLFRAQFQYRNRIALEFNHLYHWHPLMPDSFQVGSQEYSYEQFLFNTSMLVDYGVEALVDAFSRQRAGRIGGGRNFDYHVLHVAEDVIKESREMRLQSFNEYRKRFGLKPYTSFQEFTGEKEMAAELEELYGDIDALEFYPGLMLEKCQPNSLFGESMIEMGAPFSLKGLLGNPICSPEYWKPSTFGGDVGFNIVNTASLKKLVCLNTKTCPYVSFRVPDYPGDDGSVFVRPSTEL

[6] = molecular target: Voltage-dependent L-type calcium channel subunit alpha-1C (Rattus norvegicus, UniProt P22002); assay type: functional
Sequence of Voltage-dependent L-type calcium channel subunit alpha-1C (P22002 whole entry): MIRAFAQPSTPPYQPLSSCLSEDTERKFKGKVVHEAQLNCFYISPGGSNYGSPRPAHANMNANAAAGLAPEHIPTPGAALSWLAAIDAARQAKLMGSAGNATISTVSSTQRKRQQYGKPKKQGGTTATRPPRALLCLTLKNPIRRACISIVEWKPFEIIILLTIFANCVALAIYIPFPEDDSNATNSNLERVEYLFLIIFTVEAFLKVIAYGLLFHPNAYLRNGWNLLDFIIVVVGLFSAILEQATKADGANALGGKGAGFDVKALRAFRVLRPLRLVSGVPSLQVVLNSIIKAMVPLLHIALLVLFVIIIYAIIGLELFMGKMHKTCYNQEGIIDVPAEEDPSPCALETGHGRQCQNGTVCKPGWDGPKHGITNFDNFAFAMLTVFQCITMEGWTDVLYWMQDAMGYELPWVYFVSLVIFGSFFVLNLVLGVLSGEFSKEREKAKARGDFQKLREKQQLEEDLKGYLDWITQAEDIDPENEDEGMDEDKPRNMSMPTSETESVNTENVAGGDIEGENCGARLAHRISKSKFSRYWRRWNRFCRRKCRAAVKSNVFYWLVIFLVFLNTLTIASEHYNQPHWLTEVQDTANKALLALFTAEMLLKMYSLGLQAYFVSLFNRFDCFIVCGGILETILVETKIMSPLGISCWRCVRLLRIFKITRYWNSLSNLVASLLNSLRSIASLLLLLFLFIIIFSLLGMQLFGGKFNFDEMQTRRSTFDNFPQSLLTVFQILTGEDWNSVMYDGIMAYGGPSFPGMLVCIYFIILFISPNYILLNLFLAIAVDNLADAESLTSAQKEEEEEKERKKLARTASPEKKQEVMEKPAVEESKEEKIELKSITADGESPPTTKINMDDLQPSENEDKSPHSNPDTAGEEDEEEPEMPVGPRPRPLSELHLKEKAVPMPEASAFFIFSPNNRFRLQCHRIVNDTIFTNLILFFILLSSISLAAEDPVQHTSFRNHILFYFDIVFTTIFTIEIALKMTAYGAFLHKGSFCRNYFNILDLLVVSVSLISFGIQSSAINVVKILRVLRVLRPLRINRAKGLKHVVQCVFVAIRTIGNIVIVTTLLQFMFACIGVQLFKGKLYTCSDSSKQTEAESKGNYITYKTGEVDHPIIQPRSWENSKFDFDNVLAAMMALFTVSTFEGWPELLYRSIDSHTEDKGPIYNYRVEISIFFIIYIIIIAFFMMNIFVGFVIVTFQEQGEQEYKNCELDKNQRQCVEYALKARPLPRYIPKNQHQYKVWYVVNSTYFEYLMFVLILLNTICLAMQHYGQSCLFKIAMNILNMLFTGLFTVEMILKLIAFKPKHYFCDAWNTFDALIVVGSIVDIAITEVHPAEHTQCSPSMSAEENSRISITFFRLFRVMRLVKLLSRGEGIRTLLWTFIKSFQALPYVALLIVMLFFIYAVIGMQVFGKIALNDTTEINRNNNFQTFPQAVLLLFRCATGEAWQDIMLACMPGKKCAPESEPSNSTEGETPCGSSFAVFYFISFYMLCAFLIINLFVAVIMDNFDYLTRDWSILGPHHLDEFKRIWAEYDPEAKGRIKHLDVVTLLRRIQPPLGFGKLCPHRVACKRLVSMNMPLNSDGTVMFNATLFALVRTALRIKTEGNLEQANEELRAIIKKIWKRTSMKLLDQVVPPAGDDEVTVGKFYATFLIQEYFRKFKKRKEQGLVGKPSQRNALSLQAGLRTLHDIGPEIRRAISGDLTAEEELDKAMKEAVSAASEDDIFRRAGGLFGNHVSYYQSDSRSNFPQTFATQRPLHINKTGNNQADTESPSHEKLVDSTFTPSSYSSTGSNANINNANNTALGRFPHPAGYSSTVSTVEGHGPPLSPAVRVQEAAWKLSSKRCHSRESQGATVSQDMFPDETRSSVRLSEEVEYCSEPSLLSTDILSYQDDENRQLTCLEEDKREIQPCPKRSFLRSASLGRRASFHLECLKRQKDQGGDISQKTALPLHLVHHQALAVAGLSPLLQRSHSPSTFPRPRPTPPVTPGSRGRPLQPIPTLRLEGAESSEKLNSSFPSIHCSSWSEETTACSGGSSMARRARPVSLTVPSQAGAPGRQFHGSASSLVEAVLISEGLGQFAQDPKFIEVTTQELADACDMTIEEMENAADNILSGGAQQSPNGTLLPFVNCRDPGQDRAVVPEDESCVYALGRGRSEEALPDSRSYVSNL

[7] = molecular target: Gamma-aminobutyric acid receptor subunit alpha-1 (Rattus norvegicus, UniProt P62813)
Sequence of Gamma-aminobutyric acid receptor subunit alpha-1 (P62813 whole entry): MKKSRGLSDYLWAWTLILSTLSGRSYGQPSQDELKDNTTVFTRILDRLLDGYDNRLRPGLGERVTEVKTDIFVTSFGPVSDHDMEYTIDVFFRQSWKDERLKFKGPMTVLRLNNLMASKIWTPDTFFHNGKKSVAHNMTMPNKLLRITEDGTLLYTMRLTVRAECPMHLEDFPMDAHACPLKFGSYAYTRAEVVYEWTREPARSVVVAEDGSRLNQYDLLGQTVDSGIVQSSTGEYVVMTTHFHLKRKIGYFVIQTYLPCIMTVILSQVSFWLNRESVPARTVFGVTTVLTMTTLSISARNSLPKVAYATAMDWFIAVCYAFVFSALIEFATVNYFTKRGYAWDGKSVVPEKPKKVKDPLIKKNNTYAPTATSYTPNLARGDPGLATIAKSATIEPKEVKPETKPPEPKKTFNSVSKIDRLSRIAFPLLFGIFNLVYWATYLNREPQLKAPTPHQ

[8] = molecular target: T4, Muscarinic acetylcholine receptor M1 (Homo sapiens, UniProt P11229); assay type: functional
T4 sequence (P11229 whole entry): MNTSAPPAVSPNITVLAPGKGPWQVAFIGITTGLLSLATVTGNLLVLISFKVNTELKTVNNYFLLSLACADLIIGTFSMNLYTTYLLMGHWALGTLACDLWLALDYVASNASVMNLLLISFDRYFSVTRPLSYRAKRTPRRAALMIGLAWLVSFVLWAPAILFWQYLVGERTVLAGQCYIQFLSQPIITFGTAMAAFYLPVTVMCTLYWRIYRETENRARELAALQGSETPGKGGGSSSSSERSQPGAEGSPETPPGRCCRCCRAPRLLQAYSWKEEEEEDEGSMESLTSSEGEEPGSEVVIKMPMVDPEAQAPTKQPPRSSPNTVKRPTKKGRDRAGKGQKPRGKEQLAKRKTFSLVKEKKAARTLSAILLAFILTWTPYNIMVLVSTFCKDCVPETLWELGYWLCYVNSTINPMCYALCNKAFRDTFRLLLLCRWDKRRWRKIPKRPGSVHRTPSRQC
Note: assay procedure not described here.

Sequence of 5-hydroxytryptamine receptor 2B (P41595 whole entry): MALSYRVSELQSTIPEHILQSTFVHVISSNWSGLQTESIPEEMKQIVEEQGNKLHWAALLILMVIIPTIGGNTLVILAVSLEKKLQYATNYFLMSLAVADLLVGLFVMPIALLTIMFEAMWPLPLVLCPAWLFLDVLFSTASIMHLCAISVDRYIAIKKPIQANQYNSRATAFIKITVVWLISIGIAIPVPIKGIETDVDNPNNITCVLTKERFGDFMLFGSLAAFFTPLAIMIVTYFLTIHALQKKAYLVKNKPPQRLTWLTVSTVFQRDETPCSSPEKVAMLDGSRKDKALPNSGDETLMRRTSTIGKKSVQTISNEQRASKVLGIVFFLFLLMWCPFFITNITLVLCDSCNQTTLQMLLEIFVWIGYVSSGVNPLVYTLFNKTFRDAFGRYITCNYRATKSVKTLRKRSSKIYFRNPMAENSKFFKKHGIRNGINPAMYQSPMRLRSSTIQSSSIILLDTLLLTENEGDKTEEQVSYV
Sequence of D(3) dopamine receptor (P35462 whole entry): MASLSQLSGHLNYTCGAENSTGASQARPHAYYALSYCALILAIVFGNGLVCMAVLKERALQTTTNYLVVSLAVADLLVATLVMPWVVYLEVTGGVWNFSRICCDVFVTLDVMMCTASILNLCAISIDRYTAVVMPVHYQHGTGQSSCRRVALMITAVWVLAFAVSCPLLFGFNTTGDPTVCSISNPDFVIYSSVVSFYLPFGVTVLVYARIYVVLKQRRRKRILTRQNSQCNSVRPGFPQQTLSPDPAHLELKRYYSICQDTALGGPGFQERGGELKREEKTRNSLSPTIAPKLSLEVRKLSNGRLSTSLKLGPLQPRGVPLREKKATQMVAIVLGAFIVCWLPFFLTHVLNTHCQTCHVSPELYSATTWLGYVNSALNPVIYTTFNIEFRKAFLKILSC

| Molecule | AC50 (D(3) dopamine receptor) [µM] | AC50 [1] [µM] | AC50 (B2 bradykinin receptor) [µM] | AC50 [2] [µM] | AC50 [3] [µM] | AC50 (Cannabinoid receptor 1) [µM] | AC50 (Histamine H2 receptor) [µM] | AC50 [4] [µM] | AC50 [5] [µM] | AC50 [6] [µM] | AC50 [7] [µM] | AC50 [8] [µM] |
| --- | --- | --- | --- | --- | --- | --- | --- | --- | --- | --- | --- | --- |
| CN(C)c1ccc(C(=C2C=CC(=[N+](C)C)C=C2)c2ccc(N(C)C)cc2)cc1 [GENTIAN VIOLET] | 1.21 | – | – | – | – | – | – | – | – | – | – | – |
| HYDROXOCOBALAMIN | – | > 30 | > 30 | > 30 | 20 | > 30 | > 30 | > 30 | 0.003 | > 30 | > 30 | > 30 |
